According to patent publication US6455593B1, “Method of dynamic retardation of cell cycle kinetics to potentiate cell damage” (priority 1995, dated 2002):
Like-named read-outs stand apart in the source and are kept apart here.

What was measured:
Daudi cells = assay: MIS MTT growth inhibition assay; type: cell-based, human
From the text: (§1) A dye, 3-[4,5-dimethylthiazol-2-yl]-2,5-diphenyl-tetrazolium bromide (MTT), was used as a chromogenic indicator of the metabolically active cell mass. Viable cells metabolize the dye and accumulate a reduced formazan product (blue color) which is solubilized for colorimetry. Mossman T, J. Immunol. Methods 5:55-63 (1983); Li L and Lau B H S, In Vitro Cell Dev. Biol. 29A:531-536 (1993). The MTT assay has been established as useful for measuring either growth inhibition or population killing. Plowman, supra. The MTT method is ideal for cells tested in suspension growth, and can also be used for some cells growing in monolayers. […] Alley, supra; Hofs, supra; Wilson J K et al., Br. J. Cancer 62:189-94 (1990); Plowman, supra.
(§2) Thirty μl of 0.5% MTT in phosphate buffered saline was added to each microculture well at the appropriate time. After incubation at 37° C. for 3 hr, 120 μl of an aqueous solution of 10 % SDS with 0.01 N HCl was added to release and dissolve formazan product. This was accomplished by overnight incubation of the plate at 37° C. After careful mixing of the microwell contents by placing the plates on an orbital shaker for 5 minutes the absorbencies were quantitated by spectrophotometry at 570 nm with a Ceres UV 900 HDI microwell plate reader (from Biotek Instruments Inc, Winooski, Vt. 05404-0998). Absorbance data was normalized to a blank well containing all reagents without cells and was collected semi-automatically.
(§3) Flat-bottom 96-well plates of tissue culture quality (Corning or Costar) were set up with two-fold serial dilutions of each agent to be tested, e.g., the RA and TCI, using a multichannel pipettor with adjustable volume, e.g., Costar or Rainin, to perform serial mixing. This set-up is diagrammed in FIG. 12. […] In each plate, a total of 59 wells then contained bivariate agent combinations, the bivariate serial dilutions.

[1] = system: human malignant lymphoma cells (U937); assay: Tumorigenic assay in athymic nude mice; type: in vivo; conditions: U937 cells treated with dThd 0.2 mM for 4 hr followed by STSP 25 nM for 7 hr before subcutaneous inoculation; 14 days
From the text: The biologic behavior of xenografts of human malignant cells in immunosuppressed mice can approximate natural growth conditions in a patient, since the cells receive a local supply of plasma nutrients and can survive for several weeks. Thus, inoculated cells may survive in a latent state prior to growth, a condition not readily duplicated in vitro. Inoculum size is critical for observation of tumor growth within a practical time frame. […] After treatment, cells were sedimented and resuspended in serum-free RPMI 1640. In each group four athymic Nu/Nu weanling mice of mean weight 17 gm were inoculated subcutaneously into both subscapular regions with 0.1 ml of RPMI 1640 containing 10^7 cells (viability>90%). Formation of tumors in these subcutaneous sites was observed during the next 14 days. One control mouse died prematurely. At 14 days, all animals were sacrificed, tumors were photographed, tumors were carefully dissected, and tumor weights were recorded. Tumors were verified histologically.

U937 cells [2] = assay: Pilot test of enhancement of gamma radiation damage; type: cell-based, human; conditions: STSP as RA, approximately 25 nM, pilot data
From the text: Serial two-fold changes in calibrated radioactive dosages are combined with two-fold serial dilutions of an agent being tested as an RA or a TCI.

U937 cells [3] = assay: MIS LDH release assay (CytoTox96); type: cell-based, human; conditions: STSP for 14 H, total 18 H, STSP nM: 100,50,25,13,6,3, r16 dThd alone
Method: The MIS set up was identical to that described in Example 8. The relative activity of LDH released into supernatant from each microculture well was detected by a coupled enzymatic assay, Decker et al., J. Immunol. Methods 15:61 (1988), in which the chromogen 2-(p-iodophenyl)-3-(p-nitrophenyl)-5-phenyl tetrazolium chloride (INT) is converted to a red INT-formazan product by NADH in the presence of diaphorase.
In this procedure, after incubation and at the time for assay, 50 μl of fresh medium was added to each microculture well prior to assay and microcultures in the entire 96 well plate were simultaneously sedimented at 400×G for 10 min in a Becton Dickinson refrigerated table top centrifuge using a plate carrier. A 50 μl sample from each microwell then was removed carefully and transferred to a corresponding well in a clean 96 well plate. LDH activity was quantitated by means of the CytoTox96 assay, Promega Corp., Madison, Wis. 53711, according to the manufacturers instructions. In tests to determine the total LDH in each microwell, 10 μl of lysing reagent (from the CytoTox96 assay kit) was added to the fixed 100 μl volume with cells and medium prior to the above step. […].
These formulas use […] in which positive numbers are obtained as compared to % inhibition used above. […] Particularly for the latter purpose, all of the cells in each microculture well were totally lysed with Promega lysing reagent prior to the calorimetric measurement.

pRb = assay: Immunoblot of pRb phosphorylation status; type: cell-based, human
Method: Whole cell extracts (U937 cells) were prepared in an SDS 2×sample buffer (100 mM Tris.HCl (pH 6.8), 200 mM DTT and 4% sodium dodecyl sulfate) and boiled for 5 minutes. Protein concentrations were assayed, and samples of 100 μg of protein per lane were applied to 7.5% SDS-polyacrylamide gels (PAGE). Resolved proteins were transferred to Immobilon P (Millipore), and pRb was localized with monoclonal anti-pRb (Santa Cruz, IF8) and a chemiluminescence procedure (Amersham ECL). Samples for flow cytometry were prepared and flow cytometry was performed as described in Example 2.

[4] = system: p34^cdc2, c-myc, JNK, Erk-2; assay: Immunoblot and kinase activity assays (CDC2, c-myc, MAP kinases); type: cell-based, human; conditions: U937, STSP ±dThd or dThd alone
From the text: The cyclin-dependent kinase p34^cdc2 was detected with antibody clone #1 from Signal Transduction Laboratories. For detection of histone phosphorylation activity p34^cdc2 was immunoprecipitated with monoclonal antibody (Santa Cruz, #17) using protein A sepharose and reacted with H1 substrate (Boehringer Mannheim) in the presence of γ^32P-ATP Aersham). […] MAP kinases were detected by immnunoblotting with monoclonal antibodies from Pharmingen (San Diego, Calif.). For assay of enzymatic activities, MAP kinases were immunoprecipitated as above with polyclonal antibody to erk2 or with a GST-JNK substrate for JNK. The substrate for erk2 was myelin basic protein substrate and for JNK was GST-JNK (Pharmingen). The protooncogene product c-myc was detected by immunoblotting with an antibody from Oncogene Sciences.

[5] = system: Burkitt's lymphoma cell line Raji; assay: MIS MTT growth inhibition assay; type: cell-based, human; conditions: Raji cells (Tk deficient)
HL-60 cells = assay: MIS MTT growth inhibition assay; type: cell-based, human
From the text: as §1, §2, §3

[6] = Homo sapiens, 4 h, read-out: MTT % inhibition, Aph only
[7] = Homo sapiens, HL-60, 2 h, dThd […] 2 H, STSP 0, read-out: MTT % inhibition, dThd only

Structure (SMILES): C[C@@]1(CO)[C@H](O)CC[C@@]2(C)[C@H]1CC[C@H]1C[C@@H]3C[C@@]12CC[C@]3(O)CO [Aph, aphidicolin]
- combined results ratio, Aph only (baseline line) (Daudi cells; Aph alone, every Aph concentration 8.00-0.02 ug/ml): 1.0
- inhibition at 0.02 µg/mL (Daudi cells; [6]): 0%
- inhibition at 0.03 µg/mL (Daudi cells; [6]): 1%
- inhibition at 0.06 µg/mL (Daudi cells; [6]): 4%
- inhibition at 0.5 µg/mL (Daudi cells; [6]): 8%
- inhibition at 1 µg/mL (Daudi cells; [6]): 8%
- inhibition at 2 µg/mL (Daudi cells; [6]): 9%
- inhibition at 4 µg/mL (Daudi cells; [6]): 16%
- inhibition at 8 µg/mL (Daudi cells; [6]): 28%

Structure (SMILES): CN[C@@H]1C[C@H]2O[C@@](C)([C@@H]1OC)n1c3ccccc3c3c4c(c5c6ccccc6n2c5c31)C(=O)NC4 [STSP, staurosporine]
- Tumor formation [1]: developed no tumors
- Effect on gamma radiation damage (U937 cells [2]): an enhancing effect upon damage produced by a single exposure of the U937 cells to 2.5 to 10 Gy of gamma radiation

Structure (SMILES): Cc1cn([C@H]2C[C@H](O)[C@@H](CO)O2)c(=O)[nH]c1=O [dThd, deoxythymidine]
- LDH release multiple, dThd 0.02 mM (U937 cells [3]; dThd 0.02 mM for 4 H): 1.20
- LDH release multiple, dThd 0.06 mM (U937 cells [3]; dThd 0.06 mM for 4 H): 1.14
- LDH release multiple, dThd 0.09 mM (U937 cells [3]; dThd 0.09 mM for 4 H): 1.19
- LDH release multiple, dThd 3.0 mM (U937 cells [3]; dThd 3.0 mM for 4 H): 3.61
- pRb phosphorylation (pRb; 0.2 mM dThd): did not appear to be grossly inhibited
- pRb phosphorylation (pRb; 3 mM dThd, 4 or 11 hours): pRb phosphorylation was inhibited
- Phosphorylation of CDC2 [4]: not by dThd alone
- IC40, growth inhibition [5]: > 4 mM
- inhibition at 10 µM (HL-60 cells; Homo sapiens, HL-60, 2 h, dThd 0.01 mM 2 H, STSP 0, read-out: MTT % inhibition, dThd only): 2%
- inhibition at 10 µM (HL-60 cells; Homo sapiens, HL-60, 2 h, dThd 0.01 mM (column 8, lowest) 2 H, STSP 0, read-out: MTT % inhibition, dThd only): 5%
- inhibition at 20 µM (HL-60 cells; Homo sapiens, HL-60, 2 h, dThd 0.02 mM 2 H, STSP 0, read-out: MTT % inhibition, dThd only): 7%
- inhibition at 50 µM (HL-60 cells; Homo sapiens, HL-60, 2 h, dThd 0.05 mM 2 H, STSP 0, read-out: MTT % inhibition, dThd only): 10%
- inhibition at 90 µM (HL-60 cells; Homo sapiens, HL-60, 2 h, dThd 0.09 mM 2 H, STSP 0, read-out: MTT % inhibition, dThd only): 13%
- inhibition at 3000 µM (HL-60 cells; Homo sapiens, HL-60, 2 h, dThd 3.00 mM 2 H, STSP 0, read-out: MTT % inhibition, dThd only): 59%
- inhibition at 190 µM (HL-60 cells; [7]): 20%
- inhibition at 380 µM (HL-60 cells; [7]): 28%
- inhibition at 750 µM (HL-60 cells; [7]): 40%
- inhibition at 1500 µM (HL-60 cells; [7]): 49%
- combined results ratio, dThd only (baseline line) (HL-60 cells; dThd alone, dThd 3.00-0.09 mM): 1.0
